According to patent US20230054857A1, “FLAVONOID COMPOSITIONS AND RELATED USES” (Firmenich SA, priority 2020, published 2023):

Columns and labels:
Type in all cases: physicochemical
[1] = Stability of supersaturated rhoifolin solution (20 ppm): solution concentration over time by UHPLC, onset of crystallization; conditions: for 50% (d), days for 50% crystallization of rhoifolin / Fin. Conc. (ppm) / Onset / 50%: room temperature, 40 days
Method: Aqueous solutions of various anthocyanin extracts were prepared at concentrations of 100 ppm, 200 ppm, and 300 ppm by dissolving dry anthocyanin extract in 99 g of buffer solution (citrate buffer, 100 mM, pH 2.8, 0.2% sodium benzoate). Then 1 gram of stock solution of rhoifolin in propylene glycol (PG) at 2000 ppm was added and mixed quickly with the aqueous phase. The samples were left at room temperature, and aliquots were removed over the course of three months. A control solution of rhoifolin without anthocyanin was also prepared.
To assess stability performance, the solution concentration of rhoifolin was determined over time. At specific time points 4 g of the solution were sampled, filtered and mixed with 1 g of acetonitrile. The solution was injected into a Vanquish UHPLC from Thermo Scientific coupled with a UV detector. The column was an Accucore Vanquish C18+(1.5 μm, 2.1×100 mm), eluted with a mixture of acetonitrile and water at 0.3 mL/min. The elution protocol was as follows: 5% acetonitrile (3 minutes), followed by a gradient from 5% to 80% of acetonitrile in 10 minutes. The corresponding peak of Rhoifolin was integrated, and the concentration was calculated based on a previously established calibration curve. The onset of crystallization is expressed as the point where the solution concentration passes below 95% of its initial value of 100%. The value was obtained by algorithmic curve fitting. […] In this example, and throughout “d” refers to days.
Aqueous solutions of black rice extract were prepared at a concentration of 100 ppm by dissolving dry black rice extract in 99 g of buffer solution (citrate buffer, 100 mM, pH 2.8, 0.2% sodium benzoate) with various additional additives. Then 1 gram of stock solution of rhoifolin in PG at 2000 ppm was added and mixed quickly with the aqueous phase. The samples were left at room temperature, and aliquots were removed over the course of 40 days. A control solution of rhoifolin without black rice or additional additives was also prepared. A solution with black rice, but no additional additive was also prepared. The concentration of the additional additives is 100 ppm in each case. […] Saponin is Quillaja P (Firmenich SA).
Aqueous solutions were prepared in 99 gram of buffer solution (citrate buffer, 100 mM, pH 2.8, 0.2% sodium benzoate) with various additives. Then 1 gram of stock solution of rhoifolin in PG at 2000 ppm was added and mixed quickly with the aqueous phase. The samples were left at room temperature, and aliquots were removed over the course of 40 days. A control solution of rhoifolin without additive was prepared. The concentration of the additives is 100 ppm in each case. […] Saponin is Quillaja P (Firmenich SA).

[2] = Stability of supersaturated phloretin solution (60 ppm): crystallization onset and final concentration
Method: To assess stability performance, the solution concentration of rhoifolin was determined over time. At specific time points 4 g of the solution were sampled, filtered and mixed with 1 g of acetonitrile. The solution was injected into a Vanquish UHPLC from Thermo Scientific coupled with a UV detector. The column was an Accucore Vanquish C18+(1.5 μm, 2.1×100 mm), eluted with a mixture of acetonitrile and water at 0.3 mL/min. The elution protocol was as follows: 5% acetonitrile (3 minutes), followed by a gradient from 5% to 80% of acetonitrile in 10 minutes. The corresponding peak of Rhoifolin was integrated, and the concentration was calculated based on a previously established calibration curve. The onset of crystallization is expressed as the point where the solution concentration passes below 95% of its initial value of 100%. The value was obtained by algorithmic curve fitting. […] In this example, and throughout “d” refers to days. Aqueous solutions of Berry extract were prepared at a concentration of 25 ppm, 50 ppm, 75 ppm, and 100 ppm by dissolving dry Berry extract in 99 g of buffer solution (citrate buffer, 100 mM, pH 2.8, 0.2% sodium benzoate). Then 1 gram of stock solution of phloretin in PG at 6000 ppm was added and mixed quickly with the aqueous phase. The samples were stored at 8° C., and aliquots were removed over the course of three months. A control solution of phloretin without Berry extract was also prepared. […] Aqueous solutions were prepared in 99 gram of buffer solution (citrate buffer, 100 mM, pH 2.8, 0.2% sodium benzoate) with saponin. Then 1 gram of stock solution of phloretin in PG at 6000 ppm was added and mixed quickly with the aqueous phase. The samples stored at 8° C., and aliquots were removed over the course of 5 months. A control solution of phloretin without saponin was prepared. The concentration of saponin was 100 ppm. […] Saponin is Quillaja P (Firmenich SA).

[3] = Stability of supersaturated naringenin solution (60 ppm): crystallization onset and final concentration
Method: To assess stability performance, the solution concentration of rhoifolin was determined over time. At specific time points 4 g of the solution were sampled, filtered and mixed with 1 g of acetonitrile. The solution was injected into a Vanquish UHPLC from Thermo Scientific coupled with a UV detector. The column was an Accucore Vanquish C18+(1.5 μm, 2.1×100 mm), eluted with a mixture of acetonitrile and water at 0.3 mL/min. The elution protocol was as follows: 5% acetonitrile (3 minutes), followed by a gradient from 5% to 80% of acetonitrile in 10 minutes. The corresponding peak of Rhoifolin was integrated, and the concentration was calculated based on a previously established calibration curve. The onset of crystallization is expressed as the point where the solution concentration passes below 95% of its initial value of 100%. The value was obtained by algorithmic curve fitting. […] In this example, and throughout “d” refers to days. Aqueous solutions of Berry extract were prepared at a concentration of 25 ppm, 50 ppm, 75 ppm, and 100 ppm by dissolving dry Berry extract in 99 g of buffer solution (citrate buffer, 100 mM, pH 2.8, 0.2% sodium benzoate). Then 1 gram of stock solution of naringenin in PG at 6000 ppm was added and mixed quickly with the aqueous phase. The samples were stored at 8° C., and aliquots were removed over the course of 40 days. A control solution of naringenin without Berry extract was also prepared. […] Aqueous solutions of Berry extract were prepared at a concentration of 100 ppm by dissolving dry Berry extract in 99 g of buffer solution (citrate buffer, 100 mM, pH 2.8, 0.2% sodium benzoate) with various additional additives. Then 1 gram of stock solution of naringenin in PG at 6000 ppm was added and mixed quickly with the aqueous phase. The samples were stored at 8° C., and aliquots were removed over the course of five months. A control solution of naringenin without Berry extract or additional additive was also prepared. A solution with Berry extract, but no additional additive was also prepared. The concentration of the additional additives is 100 ppm in each case. […] Saponin is Quillaja P (Firmenich SA). Aqueous solutions of black rice extracts were prepared at a concentration of 100 ppm by dissolving dry black rice extract in 99 g of buffer solution (citrate buffer, 100 mM, pH 2.8, 0.2% sodium benzoate) with various additional additives. Then 1 gram of stock solution of naringenin in PG at 6000 ppm was added and mixed quickly with the aqueous phase. The samples were stored at 8° C., and aliquots were removed over the course of five months. A control solution of naringenin without black rice extract or additional additive was also prepared. A solution with black rice extract, but no additional additive was also prepared. The concentration of the additional additives is 100 ppm in each case. […] Saponin is Quillaja P (Firmenich SA). Aqueous solutions were prepared in 99 gram of buffer solution (citrate buffer, 100 mM, pH 2.8, 0.2% sodium benzoate) with various additives. Then 1 gram of stock solution of naringenin in PG at 6000 ppm was added and mixed quickly with the aqueous phase. The samples were stored at 8° C., and aliquots were removed over the course of 5 months. A control solution of naringenin without additive was prepared. The concentration of the additives is 100 ppm in each case. […] Saponin is Quillaja P (Firmenich SA). Aqueous solutions of Berry extract were prepared at a concentration of 25 ppm by dissolving dry Berry extract in 99 g of buffer solution (citrate buffer, 100 mM, pH 2.8, 0.2% sodium benzoate) with various amounts of added saponin. Then 1 gram of stock solution of naringenin in PG at 6000 ppm was added and mixed quickly with the aqueous phase. The samples were stored at 8° C., and aliquots were removed over the course of five months. A control solution of naringenin without Berry extract or additional additive was also prepared. A solution with Berry extract, but no additional additive was also prepared. […]

[4] = Example 2 control: rhoifolin 20 ppm without black rice extract or additive
[5] = Example 3 control: rhoifolin 20 ppm without additive
[6] = control: rhoifolin 20 ppm without extract, pH 2.8, room temperature
[7] = Example 10 control: phloretin 60 ppm without Berry extract, pH 2.8, 8° C., three months
[8] = Example 11 control: phloretin 60 ppm without saponin, 8° C., 5 months
[9] = rhoifolin 20 ppm + 100 ppm additive alone
[10] = rhoifolin 20 ppm + 100 ppm black rice extract + 100 ppm additive
[11] = naringenin 60 ppm + 100 ppm Berry extract + 100 ppm additive, 8° C., five months
[12] = naringenin 60 ppm + 100 ppm additive alone, 8° C., 5 months
[13] = naringenin 60 ppm + 100 ppm black rice extract + 100 ppm additive, 8° C., five months
[14] = Example 4 control: naringenin 60 ppm without Berry extract, pH 2.8, 8° C., 40 days
[15] = Example 5 control: naringenin 60 ppm without Berry extract or additive, 8° C., five months
[16] = Example 6 control: naringenin 60 ppm without black rice extract or additive, 8° C., five months
[17] = Example 7 control: naringenin 60 ppm without additive, 8° C., 5 months
[18] = Example 8 control: naringenin 60 ppm without Berry extract or additive, 8° C., five months
[19] = Example 9 control: naringenin 60 ppm without saponin, 8° C., five months

## C[C@@H]1O[C@@H](O[C@H]2[C@H](Oc3cc(O)c4c(=O)cc(-c5ccc(O)cc5)oc4c3)O[C@H](CO)[C@@H](O)[C@@H]2O)[C@H](O)[C@H](O)[C@H]1O [Rhoifolin, rhoifolin]
[1]; [4]
  50% (d), days for 50% crystallization of rhoifolin: 8.2 days
  Fin. Conc. (ppm): 3.32 ppm
  Onset: 4.1 days
[1]; [5]
  50%: 8.2 days
  Fin. Conc. (ppm): 3.32 ppm
  Onset: 4.1 days
[1]; control: rhoifolin 20 ppm without anthocyanin extract, citrate buffer pH 2.8, room temperature
  Onset (d) of crystallization: 4.1 days
[1]; [6]
  50% Rem (d), days when only 50% of initial rhoifolin remained in solution: 8.2 days
  Fin. Conc. (ppm) of rhoifolin in solution: 3.3 ppm

## O=C(CCc1ccc(O)cc1)c1c(O)cc(O)cc1O [Phloretin, phloretin]
[2]; [7]
  Fin. Conc. (ppm): 33.8 ppm
  Onset: 13.6 days
[2]; [8]
  Fin. Conc. (ppm): 33.8 ppm
  Onset: 13.6 days

## C=C1C[C@@]23CC[C@H]4[C@@](C)(CCC[C@@]4(C)C(=O)O[C@@H]4O[C@H](CO)[C@@H](O)[C@H](O)[C@H]4O)[C@@H]2CC[C@]1(O[C@@H]1O[C@H](CO)[C@@H](O)[C@H](O[C@@H]2O[C@H](CO)[C@@H](O)[C@H](O)[C@H]2O)[C@H]1O[C@@H]1O[C@H](CO)[C@@H](O)[C@H](O)[C@H]1O)C3 [Rebaudioside A, reference compound]
[1]; [9]
  50%: 13.6 days
  Fin. Conc. (ppm): 4.04 ppm
  Onset: 7.5 days
[1]; [10]
  50% (d), days for 50% crystallization of rhoifolin: 18.8 days
  Fin. Conc. (ppm): 5.96 ppm
  Onset: 10.8 days
[3]; [11]
  Fin. Conc. (ppm): 34.1 ppm
  Onset: 15.8 days
[3]; [12]
  Fin. Conc. (ppm): 31.0 ppm
  Onset: 7.5 days
[3]; [13]
  Fin. Conc. (ppm): 35.4 ppm
  Onset: 18.3 days

## O=C1C[C@@H](c2ccc(O)cc2)Oc2cc(O)cc(O)c21 [Naringenin, naringenin]
[3]; [14]
  Fin. Conc. (ppm): 24.6 ppm
  Onset: 0.3 days
[3]; [15]
  Fin. Conc. (ppm): 24.6 ppm
  Onset: 0.3 days
[3]; [16]
  Fin. Conc. (ppm): 24.6 ppm
  Onset: 0.3 days
[3]; [17]
  Fin. Conc. (ppm): 24.6 ppm
  Onset: 0.3 days
[3]; [18]
  Fin. Conc. (ppm): 24.6 ppm
  Onset: 0.3 days
[3]; [19]
  Fin. Conc. (ppm): 24.6 ppm
  Onset: 0.3 days
